In US10188671B2, “Boron-dipyrrin complex and medicament containing the same” (JAPAN SCIENCE AND TECHNOLOGY AGENCY, priority 2015, dated 2019):

Columns and labels:
[1] = Optical properties in methanol; assay type: physicochemical
Description: The optical properties (in methanol) of compounds 2 to 4 synthesized were determined (Table 1). The compounds 2 to 4 each have maximum absorption at a wavelength at or near 500 nm and emit fluorescence at 509 nm. It was observed that introduction of a perfluoroalkyl group caused some decreases in light absorption coefficients, but little change in their fluorescence quantum yield.

[2] = Photostability under light irradiation (500 nm, methanol); assay type: physicochemical; details: methanol solution, light of 500 nm, 37° C., FIG. 2
Description: Next, a methanol solution containing each of compounds 2 to 4 was irradiated with light of 500 nm, and incubated at 37° C. Then, a change in the time course of the absorbance at the maximum light absorption wavelength was measured to compare their photostability (FIG. 2). […] By contrast, compounds 3 and 4, having a perfluoroalkyl group, took 2 hours or longer until complete photofading. […] Reaction with singlet oxygen seems to be primarily responsible for the photofading under visible light irradiation. So, the photostability of the present compounds was considered from the viewpoint of the reactivity with singlet oxygen. First, the HOMO/LUMO levels of compounds 2 to 4 were calculated in accordance with a DFT algorithm (FIG. 3). […] As the HOMO level increases, the compounds are more susceptible to oxygenation by singlet oxygen. Thus, this calculation results agree with the results of the photostability test. […] This reflects the fact that the maximum absorption wavelength is unchanged.

[3] = Absorption spectrum measurement (Test Example 3); assay type: physicochemical; details: for shift of maximum absorption wavelength to the long-wavelength side: 8 vs compound 9, 11 vs F on boron, 12 with R^6 iodine; for Absorbance λmax: Table 2
Description: Each absorption spectrum was measured (Table 2). The maximum absorption wavelength of compound 8, in which the dimethylamino phenyl group of compound 9 was changed to a julolidine group, was shifted to the long-wavelength side by 30 nm than that of compound 9. […] The maximum absorption wavelength of compound 12, in which R^6 was iodine, was shifted to the long-wavelength side by 20 nm. This allowed the compound to be efficiently excited by light with a longer wavelength of over 650 nm. In the cases of the carboxyl group- or sulfonic acid group-substituted tetrahydroquinoline derivatives (compounds 13 to 16) so as to introduce a water-soluble substituent, the absorption wavelength was shifted to the short-wavelength side by about 10 nm than that of the julolidine-substituted derivative. It can be deduced from the above results that as the lone electron pair of the nitrogen atom is arranged more stably on the same plane as that of the benzene ring due to the condensed ring structure of the julolidine or tetrahydroquinoline, the absorption wavelength tends to be shifted more to the long-wavelength side.

Aβ1-42 [4] = target: T1, Aβ1-42 (Homo sapiens, UniProt P05067); assay: In vitro Aβ1-42 oxygenation in phosphate buffer under 595 nm light, MALDI-TOF MS; assay type: biochemical; details: for Aβ1-42 oxygenation activity / rate of oxygenation of Aβ1-42: phosphate buffer pH 7.4, 37° C., light at 595 nm, FIG. 5
T1 sequence (P05067 672-713 limits assumed): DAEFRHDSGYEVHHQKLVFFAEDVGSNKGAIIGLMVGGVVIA
Description: (1) To check whether or not the compounds synthesized actually had Aβ oxygenation activity, in vitro oxygenation experiments were carried out using Aβ1-42 as a substrate. Compound 12 (20 μM) was added to a phosphate buffer solution (pH 7.4) containing Aβ1-42 (20 μM), and the mixture was incubated at 37° C. under LED light irradiation (at a wavelength of 595 nm). Then, a mass spectrometer (MALDI-TOF MS) was used to follow the reaction. Before the light irradiation, native Aβ1-42 and Na^+ adducts were primarily observed. […] (2) The Aβ1-42 oxygenation activities of compounds 8, 11, and 12 were compared (FIG. 5). First, 0.1% TFA aqueous solution containing o-acyliso-Aβ1-42 was diluted with a phosphate buffer solution (PB) (10 mM, pH 7.4) to prepare a native Aβ1-42 solution. To the resulting solution was added a DMSO catalyst stock solution (1.0 M). While incubated at 37° C., the mixture was irradiated with light at 595 nm. […] The heavy metal effect seems to enhance the efficiency of generating singlet oxygen.

Aβ1-42 [5] = target: T1, Aβ1-42; assay: Aβ peptide selectivity test: oxygenation of Aβ1-42; assay type: biochemical; details: 20 μM, pH 7.4, pre-incubated 3 hours, 37° C., 30 min, LED 595 nm, FIG. 9
Description: (§1) Compound 14 was used to investigate whether or not a compound of the present invention was able to selectively oxygenate Aβ. First, compound 14 (20 μM) was added to phosphate buffer solutions (pH 7.4) each containing Aβ1-42 (20 μM), angiotensin IV (20 μM) or a methionine enkephalin (20 μM), which solutions had been pre-incubated for 3 hours. The mixtures were incubated at 37° C. for 30 min under LED light irradiation (at a wavelength of 595 nm). Then, a mass spectrometer (MALDI-TOF MS) was used to follow the reaction. Three model peptides having a residue capable of being oxygenated were selected, including angiotensin IV (AT-4), met-enkephalin (ME), and somatostatin (Sat). These three peptides were subjected to the same oxygenation conditions as for Aβ1-42 (FIG. 9).

[6] = tested on: angiotensin IV (AT-4), met-enkephalin (ME), and somatostatin (Sat); assay: Aβ peptide selectivity test: oxygenation of non-amyloid model peptides; assay type: biochemical; details: same oxygenation conditions as for Aβ1-42, FIG. 9
Description: as §1

Absorbance λmax [1] | Emission λmax [1] | Φfl (fluorescence quantum yield) [1] | ϵ (light absorption coefficient) [1] | shift of maximum absorption wavelength to the long-wavelength side [3] | Absorbance λmax [3] | SMILES | Aβ1-42 oxygenation activity (Aβ1-42 [4]) | further results
502 nm | 509 nm | 0.80 | 81400 M⁻¹ cm⁻¹ | – | – | CC1=CC(C)=[N+]2C1=Cc1c(C)cc(C)n1[B-]2(F)F [Compound 2, reference compound] | – | time to substantial photofading [2]: about 30 min
– | – | – | – | 30 nm | 639 nm | CC1=CC(C)=[N+]2C1=Cc1c(C)cc(/C=C/c3cc4c5c(c3)CCCN5CCC4)n1[B-]2(F)F [Compound 8] | helped oxygenate Aβ1-42 under the light irradiation | –
502 nm | 509 nm | 0.80 | 74000 M⁻¹ cm⁻¹ | – | – | CC1=CC(C)=[N+]2C1=Cc1c(C)cc(C)n1[B-]2(F)C(F)(F)F (stereo not drawn) [Compound 3] | – | –
503 nm | 509 nm | 0.79 | 72600 M⁻¹ cm⁻¹ | – | – | CC1=CC(C)=[N+]2C1=Cc1c(C)cc(C)n1[B-]2(F)C(F)(F)C(F)(F)F (stereo not drawn) [Compound 4] | – | –

Second part, the compound before the results:

SMILES | Absorbance λmax [1] | Emission λmax [1] | Φfl (fluorescence quantum yield) [1] | ϵ (light absorption coefficient) [1] | shift of maximum absorption wavelength to the long-wavelength side [3] | Absorbance λmax [3] | Aβ1-42 oxygenation activity (Aβ1-42 [4]) | further results
CC1=CC(C)=[N+]2C1=Cc1c(C)cc(/C=C/c3cc4c5c(c3)CCCN5CCC4)n1[B-]2(F)C(F)(F)F (stereo not drawn) [Compound 11] | – | – | – | – | almost no observable change | 640 nm | helped oxygenate Aβ1-42 under the light irradiation | rate of oxygenation of Aβ1-42 (Aβ1-42 [4]): faster oxygenation rate than the compounds 8
CC1=C(I)C(C)=[N+]2C1=Cc1c(C)cc(/C=C/c3cc4c5c(c3)CCCN5CCC4)n1[B-]2(F)C(F)(F)F (stereo not drawn) [Compound 12] | – | – | – | – | 20 nm | 660 nm | helped oxygenate Aβ1-42 under the light irradiation | Aβ1-42 oxygenation (oxygen adducts by MALDI-TOF MS) (Aβ1-42 [4]; compound 20 μM, Aβ1-42 20 μM, pH 7.4, 37° C., LED 595 nm, FIG. 4): there appeared ion peaks indicating the presence of oxygen adducts in a time-dependent manner; rate of oxygenation of Aβ1-42 (Aβ1-42 [4]): significantly faster
Cc1cc2nc3c(=O)[nH]c(=O)nc-3n(C[C@H](O)[C@H](O)[C@H](O)CO)c2cc1C [riboflavin] | – | – | – | – | – | – | – | oxygenation activity toward Aβ1-42 (Aβ1-42 [5]): a certain oxygenation activity on all the peptides; oxygenation of the other (non-amyloid) peptides [6]: a certain oxygenation activity on all the peptides
